Reference: US20250019368A1, “COMPOUND AND PRODUCTION METHOD THEREOF, POLYMERIZABLE COMPOSITION, RESIN COMPOSITION, POLYMER, CURED SUBSTANCE, AND LAMINATE” (FUJIFILM Corporation, priority 2022, published 2025)

What was measured:
Assay type in all cases: physicochemical
[1] = Absorption spectrum of the compound in chloroform solution (spectral characteristics); conditions: 5×10^−6 mol/L, 1 cm cell; for ε (molar absorption coefficient): at λmax
Description: An absorption spectrum of each of the compounds of Examples 1 to 3 and Comparative Examples 1 to 3 was measured according to the following procedure, and the maximal absorption wavelength ([…]), the molar absorption coefficient ([…]), and the width of the absorption spectrum at an absorbance corresponding to ½ of the maximum absorbance (that is, the half-width) were obtained.
Using chloroform as a solvent, a solution in which the compound was dissolved was prepared such that the concentration of the compound in the chloroform was 5×10^−6 mol/L (liter; the same applies hereinafter). Each prepared solution was put into a 1 cm cell, and an absorption spectrum was measured using a spectrophotometer [product name: U-4100, manufactured by Hitachi, Ltd.] as a measurement device.

[2] = Solubility in ethyl acetate, visual check for undissolved residue; conditions: 20.0 mg in 2 mL ethyl acetate, stirred at 40° C. for 10 minutes; no residue means solubility 1% by mass or more
Description: The solubility of each compound of Examples 1 to 3 and Comparative Examples 1 to 3 in an organic solvent was measured according to the following procedure.
20.0 mg of the compound was weighed and placed in a container, 2 mL of ethyl acetate was added thereto, and the mixture was stirred at 40° C. for 10 minutes. After the stirring, the presence or absence of undissolved residue of the compound was visually observed. The fact that no undissolved residue of the compound was observed means that the solubility of the compound was 1% by mass or more.

[3] = Solubility in the organic solvents of the polymerizable composition; conditions: solvent (1) propylene glycol monomethyl ether acetate and solvent (2) cyclohexanone, polymerizable composition P4
Source text: A polymerizable composition P4 was obtained in the same manner as in the preparation of the polymerizable composition P1, except that, in the preparation of the polymerizable composition P1, the “exemplary compound 1-13” was changed to the “comparative compound R-3”.
A cured film E4 was obtained in the same manner as in the production of the cured film E1, except that, in the production of the cured film E1, the “polymerizable composition P1” was changed to the “polymerizable composition P4”. However, since the “comparative compound R-3” had extremely low solubility in the organic solvent [that is, the solvent (1) and the solvent (2)], the obtained photocured film D4 and cured film E4 were not films that could be evaluated for the spectral characteristics, so that the following evaluation tests were not performed.

Question: What does the source list for `C=C(C)C(=O)OCCOC(=O)C1=C(C)/C(=C2\C(=O)C(c3[nH]c(C)c(CC)c3C)=C2O)N=C1C` [Exemplary compound 1-13]?
Answer: Half-width (width of absorption spectrum at ½ of maximum absorbance) [1]: 25 nm; λmax (maximal absorption wavelength) [1]: 556 nm; ε (molar absorption coefficient) [1]: 185,000 L/(mol · cm); Solubility in ethyl acetate (presence or absence of undissolved residue) [2]: completely dissolved

Question: Which results are given for `C=Cc1ccc(Cn2c(C)c(CC)c(C)c2C2=C([O-])/C(=C3/C(C)=C(CC)C(C)=[N+]3Cc3ccc(C=C)cc3)C2=O)cc1` [Exemplary compound 1-30]?
Answer: Half-width (width of absorption spectrum at ½ of maximum absorbance) [1]: 29 nm; λmax (maximal absorption wavelength) [1]: 591 nm; ε (molar absorption coefficient) [1]: 158,000 L/(mol · cm); Solubility in ethyl acetate (presence or absence of undissolved residue) [2]: completely dissolved

Question: What does the source list for `CCC1=C(C)/C(=C2\C(=O)C(c3[nH]c(C)c(CC)c3C)=C2O)N=C1C` [R-1]?
Answer: Half-width (width of absorption spectrum at ½ of maximum absorbance) [1]: 23 nm; λmax (maximal absorption wavelength) [1]: 564 nm; ε (molar absorption coefficient) [1]: 238,000 L/(mol · cm); Solubility in ethyl acetate (presence or absence of undissolved residue) [2]: not completely dissolved

Question: Which “Half-width (width of absorption spectrum at ½ of maximum absorbance)” value [1] does the source give for `C=C(C)C(=O)OCCN(CCOC(=O)C(=C)C)c1ccc(C2=C([O-])/C(=C3\C=CC(=[N+](CCOC(=O)C(=C)C)CCOC(=O)C(=C)C)C=C3NC(C)=O)C2=O)c(NC(C)=O)c1` [R-2] here?
Answer: 27 nm

Question: And the “λmax (maximal absorption wavelength)” value [1]?
Answer: 667 nm

Question: What about the “ε (molar absorption coefficient)” value [1] of the same compound?
Answer: 363,000 L/(mol · cm)

Question: What about the “Solubility in ethyl acetate (presence or absence of undissolved residue)” value [2] of the same compound?
Answer: not completely dissolved

Question: Which “Half-width (width of absorption spectrum at ½ of maximum absorbance)” value [1] does the source give for `CCN(CC)c1ccc(C2=C([O-])/C(=C3\C=CC(=[N+](CC)CC)C=C3NC(C)=O)C2=O)c(NC(C)=O)c1` [R-3] here?
Answer: 27 nm

Question: And the “λmax (maximal absorption wavelength)” value [1]?
Answer: 676 nm

Question: And the “ε (molar absorption coefficient)” value [1]?
Answer: 356,000 L/(mol · cm)

Question: And the “Solubility in ethyl acetate (presence or absence of undissolved residue)” value [2]?
Answer: not completely dissolved

Question: And the “Solubility in the organic solvent” value [3]?
Answer: extremely low
